These results are taken from paper PMC11267363, “Supramolecular Nanofibers Ameliorate Bleomycin‐Induced Pulmonary Fibrosis by Restoring Autophagy” (Advanced Science, 2024).

Ends that are not written are not given here.

Data set [1] relates to bleomycin-induced pulmonary fibrosis. Kind of data set: Bleomycin model of pulmonary fibrosis, therapeutic treatment. In kind it is in vivo, C57BL/6 mice. The conditions noted are these: for survival rate: bleomycin 2 U kg−1 intratracheal, i.v. treatment from 7 days later, Ac-GFFY-A2 10 mg/kg, 21-day period, n = 16. The source says:
We further evaluated the anti‐fibrotic effect of Ac‐GFFY‐A2 peptide nanofibers in vivo. […] The observed reductions in fibrosis, collagen accumulation, and protein levels of Col 1 and α‐SMA strongly support the efficacy of Ac‐GFFY‐A2 in combating fibrotic processes, confirming that the peptide nanofibers as a TRB3/p62 PPIs modulator with a potent anti‐fibrotic activity.
C57BL/6 mice were intratracheally administered with bleomycin at a dose of 2 U kg^−1 body weight as previously described.^[ [11a] ^]
Hydroxyproline content of the right lung of each mouse was measured using a conventional hydroxyproline method as previously described.^[ [30] ^]
The left lungs cleared of blood were inflated with 10% neutral buffered formalin and fixed overnight. Then the tissues were embedded in paraffin and sectioned. The 5‐µm sections were stained with H&E and Masson trichrome according to the manufacturer`s instructions (Sigma–Aldrich). Immunohistochemistry was performed as previously described.^[ [30] ^] The antibodies specific for α‐SMA and Collagen I were used for staining.

The nature of data set [2]: Self-assembly in saline buffer (Tyndall path, TEM nanostructure). In kind it is physicochemical. The source says: To verify our hypothesis, we utilized the self‐assembling factor (Acetyl‐Gly‐Phe‐Phe‐Tyr, Ac‐GFFY) to regulate the secondary conformation of A2 peptide (GGWLTRLLQTK) from p62 UBA domain binding with TRB3.^[ [16] ^] The self‐assembling factor Ac‐GFFY was covalently attached to the N‐terminal of peptide A2 to introduce Ac‐GFFY‐A2 (Figure 2a) as a modulator of the TRB3/p62 PPIs, non‐self‐assembling peptide A2 as the control group. Both of those peptide compounds were synthesized by standard solid phase peptide synthesis (SPPS), purified by reversed‐phase high‐performance liquid chromatography (HPLC), and identified through the high‐resolution mass spectrometry (HR‐MS, Figures S4 and S5, Supporting Information). The 0.5 wt% of peptide Ac‐GFFY‐A2 could observe an obvious “Tyndall path” in saline buffer (0.9% NaCl) after the heating‐cooling process (Figure S13, Supporting Information), compared with peptide A2 solution (0.5 wt%, saline buffer). The critical aggregation concentration (CAC) of those compounds was detected by dynamic light scattering. […] Furthermore, a transmission electron microscope (TEM) was used to observe the nanostructures formed by different compounds. Ac‐GFFY‐A2 could self‐assemble and form entangled nanofibers with a diameter of 8–12 nm (Figure 2b).
Transmission electron microscopy (TEM)
The samples (0.5 wt%, 10 μL) were loaded onto copper mesh coated with carbon.
After excess liquid was removed by a filter paper, 2% uranium acetate was used for dyeing the sample for 1 minute and the sample was dried overnight in a dryer. The samples were then imaged at 200 kV using a Tecnai G2 F20 system.
Circular dichroism (CD) spectrum
A BioLogic (MOS-450) system was used to record the circular dichroism spectrum.
Test wavelengths was in the range from 180 nm to 280 nm. […]
The CAC values were determined by dynamic light scattering (DLS). Solutions containing different concentration of compound in saline buffer were tested and the light scattering intensity was recorded for each concentration analyzed. […]

Ac-GFFYGGWLTRLLQTK-OH [Ac-GFFY-A2]: in data set [1], the survival rate came to 68.75%. The “quantification of fibrotic left lung sections (lung fibrotic score)” value in data set [1] (bleomycin mice, i.v. treatment, H&E, compared to saline or A2) is “significant decrease in fibrosis”. For the same substance, in data set [1] (bleomycin mice, i.v. treatment, average body weight curve), the body weight entry is reported as “partial recovery from the body weight loss”. The hydroxyproline content result in data set [1] (bleomycin mice, i.v. treatment, bleomycin challenge alone ≈480) is on record as “≈ 280 µg per right lung tissue”. Further, the Tyndall path entry in data set [2] (0.5 wt% in saline buffer (0.9% NaCl) after heating-cooling process) is recorded as “obvious”. Besides, in data set [2] (0.5 wt% in saline buffer after heating-cooling process, TEM), the “diameter of entangled nanofibers (TEM)” value is reported as 8–12 nm.
Substance GGWLTRLLQTK-OH [A2, reference compound] came in with a survival rate in data set [1] of 62.50%. Besides, the “nanostructure in TEM image” value in data set [2] (0.5 wt%, saline buffer, TEM) is recorded as “amorphous structures”.
